Test results reported in PubChem BioAssay AID1963420 (Molecular Pharmacology Branch, DTP, NCI, 2024).

Test system: 494315-158-R-J1-PDC complex spheroid growth, percent test/control
Assay: Anticancer human tumor 494315-158-R-J1-PDC patient-derived soft tissue sarcoma cell line growth inhibition [Asc]
Settings: for IC50: curve of first compound; for viability, T/C: stronger effect = lower value
Method in brief: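 Tumor cells were grown as complex spheroids with human endothelial cells (HUVEC) and human mesenchymal stem cells as stroma. Agents were tested alone and in combination, in half-log steps down from the clinical Cmax, or from 10 microM where Cmax was unknown.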
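Further: compound exposure lasted seven days after spheroids formed for three days.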

## C=CC(=O)N1CCN(c2nc(=O)n(-c3c(C)ccnc3C(C)C)c3nc(-c4c(O)cccc4F)c(F)cc23)C(C)C1 (stereo not given) + CCN1C(C(=O)NC23CCC(C(=O)O)(CC2)CC3)C(c2cccc(Cl)c2F)C2(C(=O)Nc3cc(Cl)ccc32)C12CCCCC2
Second compound 0.03 µM
  IC50: > 10 µM
Second compound 0.0949 µM
  IC50: > 10 µM
Second compound 0.3 µM
  IC50: > 10 µM
Second compound 0.949 µM
  IC50: > 10 µM
Second compound 3 µM
  IC50: > 10 µM
Second compound 0.03 µM, first compound 0.0316 µM
  viability, T/C: 111%
Second compound 0.03 µM, first compound 0.1 µM
  viability, T/C: 97.2%
Second compound 0.03 µM, first compound 0.316 µM
  viability, T/C: 119%
Second compound 0.03 µM, first compound 1 µM
  viability, T/C: 128%
Second compound 0.03 µM, first compound 3.16 µM
  viability, T/C: 128%
Second compound 0.03 µM, first compound 10 µM
  viability, T/C: 104%
Second compound 0.0949 µM, first compound 0.0316 µM
  viability, T/C: 90.4%
Second compound 0.0949 µM, first compound 0.1 µM
  viability, T/C: 96.8%
Second compound 0.0949 µM, first compound 0.316 µM
  viability, T/C: 96.3%
Second compound 0.0949 µM, first compound 1 µM
  viability, T/C: 110%
Second compound 0.0949 µM, first compound 3.16 µM
  viability, T/C: 92.8%
Second compound 0.0949 µM, first compound 10 µM
  viability, T/C: 99.9%
Second compound 0.3 µM, first compound 0.0316 µM
  viability, T/C: 97.6%
Second compound 0.3 µM, first compound 0.1 µM
  viability, T/C: 119%
Second compound 0.3 µM, first compound 0.316 µM
  viability, T/C: 111%
Second compound 0.3 µM, first compound 1 µM
  viability, T/C: 119%
Second compound 0.3 µM, first compound 3.16 µM
  viability, T/C: 114%
Second compound 0.3 µM, first compound 10 µM
  viability, T/C: 117%
Second compound 0.949 µM, first compound 0.0316 µM
  viability, T/C: 85.5%
Second compound 0.949 µM, first compound 0.1 µM
  viability, T/C: 114%
Second compound 0.949 µM, first compound 0.316 µM
  viability, T/C: 106%
Second compound 0.949 µM, first compound 1 µM
  viability, T/C: 108%
Second compound 0.949 µM, first compound 3.16 µM
  viability, T/C: 130%
Second compound 0.949 µM, first compound 10 µM
  viability, T/C: 110%
Second compound 3 µM, first compound 0.0316 µM
  viability, T/C: 102%
Second compound 3 µM, first compound 0.1 µM
  viability, T/C: 96.9%
Second compound 3 µM, first compound 0.316 µM
  viability, T/C: 97.9%
Second compound 3 µM, first compound 1 µM
  viability, T/C: 113%
Second compound 3 µM, first compound 3.16 µM
  viability, T/C: 126%
Second compound 3 µM, first compound 10 µM
  viability, T/C: 104%

## NC(=O)C(=Cn1cnc(-c2cc(C(F)(F)F)cc(C(F)(F)F)c2)n1)c1cncnc1 + Cc1c(S(C)(=O)=O)c(-c2cc(F)cc(N3CCN(c4ccc(NS(=O)(=O)c5ccc(NC(CCN6CCC(C(=O)OCCCP(=O)(O)O)CC6)CSc6ccccc6)c(S(=O)(=O)C(F)(F)F)c5)cc4)CC3)c2)c(-c2ccc(Cl)cc2)n1C(C)C
Second compound 0.1 µM
  IC50: 0.0232 µM
Second compound 0.316 µM
  IC50: 0.0124 µM
Second compound 1 µM
  IC50: 0.00667 µM
Second compound 3.16 µM
  IC50: 0.00319 µM
Second compound 10 µM
  IC50: 0.0101 µM
Second compound 0.1 µM, first compound 0.000949 µM
  viability, T/C: 79.5%
Second compound 0.1 µM, first compound 0.003 µM
  viability, T/C: 82.6%
Second compound 0.1 µM, first compound 0.00949 µM
  viability, T/C: 66.8%
Second compound 0.1 µM, first compound 0.03 µM
  viability, T/C: 44.9%
Second compound 0.1 µM, first compound 0.0949 µM
  viability, T/C: 19.2%
Second compound 0.1 µM, first compound 0.3 µM
  viability, T/C: 6.1%
Second compound 0.316 µM, first compound 0.000949 µM
  viability, T/C: 72.7%
Second compound 0.316 µM, first compound 0.003 µM
  viability, T/C: 65.4%
Second compound 0.316 µM, first compound 0.00949 µM
  viability, T/C: 51.3%
Second compound 0.316 µM, first compound 0.03 µM
  viability, T/C: 40.7%
Second compound 0.316 µM, first compound 0.0949 µM
  viability, T/C: 23.2%
Second compound 0.316 µM, first compound 0.3 µM
  viability, T/C: 4.23%
Second compound 1 µM, first compound 0.000949 µM
  viability, T/C: 53.7%
Second compound 1 µM, first compound 0.003 µM
  viability, T/C: 57.8%
Second compound 1 µM, first compound 0.00949 µM
  viability, T/C: 46.2%
Second compound 1 µM, first compound 0.03 µM
  viability, T/C: 35.1%
Second compound 1 µM, first compound 0.0949 µM
  viability, T/C: 16.3%
Second compound 1 µM, first compound 0.3 µM
  viability, T/C: 4.03%
Second compound 3.16 µM, first compound 0.000949 µM
  viability, T/C: 52.2%
Second compound 3.16 µM, first compound 0.003 µM
  viability, T/C: 52.2%
Second compound 3.16 µM, first compound 0.00949 µM
  viability, T/C: 41.8%
Second compound 3.16 µM, first compound 0.03 µM
  viability, T/C: 24%
Second compound 3.16 µM, first compound 0.0949 µM
  viability, T/C: 12.9%
Second compound 3.16 µM, first compound 0.3 µM
  viability, T/C: 2.93%
Second compound 10 µM, first compound 0.000949 µM
  viability, T/C: 67.4%
Second compound 10 µM, first compound 0.003 µM
  viability, T/C: 58%
Second compound 10 µM, first compound 0.00949 µM
  viability, T/C: 54.7%
Second compound 10 µM, first compound 0.03 µM
  viability, T/C: 29.2%
Second compound 10 µM, first compound 0.0949 µM
  viability, T/C: 14.8%
Second compound 10 µM, first compound 0.3 µM
  viability, T/C: 2.12%

## C=CC(=O)N1CCN(c2nc(=O)n(-c3c(C)ccnc3C(C)C)c3nc(-c4c(O)cccc4F)c(F)cc23)C(C)C1 (stereo not given) + Cc1c(S(C)(=O)=O)c(-c2cc(F)cc(N3CCN(c4ccc(NS(=O)(=O)c5ccc(NC(CCN6CCC(C(=O)OCCCP(=O)(O)O)CC6)CSc6ccccc6)c(S(=O)(=O)C(F)(F)F)c5)cc4)CC3)c2)c(-c2ccc(Cl)cc2)n1C(C)C
Second compound 0.1 µM
  IC50: > 10 µM
Second compound 0.316 µM
  IC50: > 10 µM
Second compound 1 µM
  IC50: > 10 µM
Second compound 3.16 µM
  IC50: > 10 µM
Second compound 10 µM
  IC50: > 10 µM
Second compound 0.1 µM, first compound 0.0316 µM
  viability, T/C: 101%
Second compound 0.1 µM, first compound 0.1 µM
  viability, T/C: 84.5%
Second compound 0.1 µM, first compound 0.316 µM
  viability, T/C: 88.9%
Second compound 0.1 µM, first compound 1 µM
  viability, T/C: 100%
Second compound 0.1 µM, first compound 3.16 µM
  viability, T/C: 108%
Second compound 0.1 µM, first compound 10 µM
  viability, T/C: 91.7%
Second compound 0.316 µM, first compound 0.0316 µM
  viability, T/C: 67.4%
Second compound 0.316 µM, first compound 0.1 µM
  viability, T/C: 75.3%
Second compound 0.316 µM, first compound 0.316 µM
  viability, T/C: 72.2%
Second compound 0.316 µM, first compound 1 µM
  viability, T/C: 89.9%
Second compound 0.316 µM, first compound 3.16 µM
  viability, T/C: 80%
Second compound 0.316 µM, first compound 10 µM
  viability, T/C: 78.3%
Second compound 1 µM, first compound 0.0316 µM
  viability, T/C: 86.4%
Second compound 1 µM, first compound 0.1 µM
  viability, T/C: 63.5%
Second compound 1 µM, first compound 0.316 µM
  viability, T/C: 74.1%
Second compound 1 µM, first compound 1 µM
  viability, T/C: 79.3%
Second compound 1 µM, first compound 3.16 µM
  viability, T/C: 84%
Second compound 1 µM, first compound 10 µM
  viability, T/C: 66%
Second compound 3.16 µM, first compound 0.0316 µM
  viability, T/C: 61.1%
Second compound 3.16 µM, first compound 0.1 µM
  viability, T/C: 60.2%
Second compound 3.16 µM, first compound 0.316 µM
  viability, T/C: 69.5%
Second compound 3.16 µM, first compound 1 µM
  viability, T/C: 79.9%
Second compound 3.16 µM, first compound 3.16 µM
  viability, T/C: 81.4%
Second compound 3.16 µM, first compound 10 µM
  viability, T/C: 60.9%
Second compound 10 µM, first compound 0.0316 µM
  viability, T/C: 81.3%
Second compound 10 µM, first compound 0.1 µM
  viability, T/C: 84.5%
Second compound 10 µM, first compound 0.316 µM
  viability, T/C: 92.8%
Second compound 10 µM, first compound 1 µM
  viability, T/C: 90.1%
Second compound 10 µM, first compound 3.16 µM
  viability, T/C: 98.5%
Second compound 10 µM, first compound 10 µM
  viability, T/C: 67.3%
